By LOAEL is commonly meant the lowest tested level that showed an adverse finding. As usually defined, the NOAEL is the highest tested level that showed no adverse finding.

We go through 5 compounds from EPA's ToxRefDB 2.

Each structure is given as a SMILES string.

Series [1] relates to mouse. To be noted: Prenatal developmental toxicity study, cd1, Oral, Gavage/Intubation, dose end: 15 GD.
Series [2] concerns rabbit. The settings on record: Prenatal developmental toxicity study, new zealand white, Oral, Gavage/Intubation, dose end: 19 GD.
In series [3] the test system is rat. The settings on record: Sub-acute repeat dose toxicity, other, Inhalation, Nose-Only, dose end: 14 day, group: systemic.
Series [4] has as its system rat. The settings on record: Prenatal developmental toxicity study, other, Inhalation, Nose-Only, dose end: 16 GD.
For series [5], the system named is rat. The settings on record: Subchronic inhalation toxicity, long evans, Whole-Body, dose end: 58 day, group: systemic, systemic / in life observation / clinical signs / abnormal movements.
The test system of series [6] is rat. The settings on record: Subchronic oral toxicity in rodents, long evans, Feed, dose end: 96 day, group: systemic, systemic / in life observation / body weight / body weight gain + systemic / in life observation / food consumption / food efficiency.
For series [7], the system named is mouse. To be noted: Subchronic oral toxicity in rodents, b6c3f1, Feed, dose end: 13 week, group: systemic, systemic / in life observation / mortality / mortality.
The test system of series [8] is rat. To be noted: Subchronic oral toxicity in rodents, fischer, Feed, dose end: 13 week, group: systemic, systemic / in life observation / body weight / body weight gain.
Series [9] deals with mouse. To be noted: Carcinogenicity; b6c3f1; Oral; Feed; dose end: 103 week; group: systemic; systemic / in life observation / clinical signs / alopecia + systemic / in life observation / clinical signs / aggressive behavior.
Series [10] deals with rat. The settings on record: Multigenerational reproductive toxicity study, wistar, Oral, Feed, dose end: 2 generation.
Series [11] concerns rabbit. To be noted: Prenatal developmental toxicity study, new zealand white, Oral, Gavage/Intubation, dose end: 19 GD. The source holds these as a separate data set.
Series [12] deals with rat. The settings on record: Subchronic inhalation toxicity, sprague dawley, Nose-Only, dose end: 13 week, group: systemic.
The test system of series [13] is rat. To be noted: Combined chronic toxicity/carcinogenicity, sprague dawley, Oral, [Not Specified], dose end: 24 month, group: systemic.
Series [14] relates to rat. To be noted: Carcinogenicity, fischer, Oral, Feed, dose end: 107 week, group: systemic.
In series [15] the test system is mouse. To be noted: Carcinogenicity, b6c3f1, Oral, Feed, dose end: 112 week, group: systemic.
Series [16] relates to mouse. To be noted: Combined chronic toxicity/carcinogenicity, cd1, Oral, Feed, dose end: 78 week, group: systemic.
The next series deals with dog. To be noted: Chronic toxicity; beagle; Oral; Feed; dose end: 12 month; group: systemic; systemic / clinical chemistry / alkaline phosphatase (alp/alk) / alkaline phosphatase (alp/alk) + systemic / in life observation / body ….
For series [17], the system named is rat. The settings on record: Subchronic oral toxicity in rodents, sprague dawley, Feed, dose end: 13 week, group: systemic, systemic / clinical chemistry / calcium / calcium + systemic / pathology microscopic / liver / accentuated lobular pattern + systemic / ….
The subject of series [18] is mouse. The settings on record: Multigenerational reproductive toxicity study, cd1, Oral, Feed, dose end: 2 generation, group: offspring.
Where [19] appears, read: group: developmental, developmental / developmental malformation / bone / [other] + developmental / developmental malformation / bone / absent + developmental / ….
Setting [20] is: group: developmental, systemic / in life observation / body weight / fetal weight.
[21] abbreviates: group: maternal, reproductive / reproductive performance / postimplantation loss / postimplantation loss + reproductive / reproductive performance / ….
[22] abbreviates: group: developmental, developmental / developmental malformation / bone / fused + developmental / developmental malformation / kidney / hydronephrosis + ….
[23] abbreviates: group: maternal, reproductive / reproductive performance / resorptions / resorptions + systemic / in life observation / body weight / body weight gain + ….
Setting [24] is: systemic / clinical chemistry / alanine aminotransferase (alt/sgpt) / alanine aminotransferase (alt/sgpt) + systemic / clinical chemistry / ….
Setting [25] is: systemic / hematology / leukocyte (wbc) count differential / leukocyte (wbc) + systemic / in life observation / body weight / body weight + ….
The mark [26] stands for this setting: group: developmental, developmental / developmental malformation / bone / incomplete ossification + developmental / developmental malformation / bone / short ….
The mark [27] stands for this setting: group: maternal, reproductive / reproductive performance / resorptions / resorptions + systemic / in life observation / body weight / body weight + systemic….
Where [28] appears, read: group: offspring, systemic / in life observation / body weight / offspring (pup) weight + systemic / organ weight / spleen / absolute + systemic / organ ….
The mark [29] stands for this setting: group: parental, systemic / pathology microscopic / stomach / hyperkeratosis + systemic / pathology microscopic / stomach / hyperplasia + systemic / ….
[30] abbreviates: group: maternal, reproductive / reproductive performance / aborted / aborted + systemic / in life observation / body weight / body weight + systemic / in ….
Setting [31] is: systemic / in life observation / body weight / body weight + systemic / in life observation / clinical signs / [other] + systemic / in life ….
[32] abbreviates: systemic / clinical chemistry / cholesterol / cholesterol + systemic / organ weight / liver / absolute + systemic / organ weight / liver / ….
The mark [33] stands for this setting: systemic / in life observation / body weight / body weight.
Setting [34] is: systemic / in life observation / body weight / body weight + systemic / in life observation / clinical signs / alopecia.
Where [35] appears, read: systemic / organ weight / liver / relative to body weight.
Where [36] appears, read: systemic / organ weight / kidney / relative to body weight + systemic / organ weight / liver / relative to body weight + systemic / organ ….

On to `COCCOCCOC` [Bis(2-methoxyethyl) ether], for which the LOAEL in the series on mouse [1] (setting [19]) is > 500 mg/kg/day; with mouse [1] (setting [21]), > 500 mg/kg/day; with rabbit [2] (setting [22]) it was > 175 mg/kg/day; in the series on rabbit [2] (setting [23]) it was > 175 mg/kg/day; in the series with rat [3] (setting [24]), > 1000 ppm; in the series with rat [4] (setting [26]), > 400 ppm. Besides, the LOAEL in the series on rat [4] (setting [27]) is > 400 ppm. In addition, the NEL was 62.5 mg/kg/day with mouse [1] (setting [19]); 125 mg/kg/day in the series on mouse [1] (setting [21]); 25 mg/kg/day in the series with rabbit [2] (setting [22]); 25 mg/kg/day in the series on rabbit [2] (setting [23]); < 100 ppm in the series with rat [3] (setting [25]); < 25 ppm in the series on rat [4] (setting [26]). Moreover, the NEL with rat [4] (setting [27]) turned out to be 25 ppm. Besides, the NOAEL in the series with mouse [1] (setting [19]) is ≥ 500 mg/kg/day; in the series on mouse [1] (setting [21]), ≥ 500 mg/kg/day; in the series on rabbit [2] (setting [22]) it was ≥ 175 mg/kg/day; with rabbit [2] (setting [23]), ≥ 175 mg/kg/day; in the series on rat [3] (setting [24]), ≥ 1000 ppm; in the series on rat [4] (setting [26]) it was ≥ 400 ppm. The NOAEL with rat [4] (setting [27]) was ≥ 400 ppm. The LEL with mouse [1] (setting [20]) came out at 125 mg/kg/day; with mouse [1] (group: maternal, reproductive / reproductive performance / postimplantation loss / postimplantation loss + systemic / in life observation / body weight / …), 250 mg/kg/day; with rabbit [2] (group: developmental, developmental / developmental malformation / limb / [other]) it was 50 mg/kg/day; in the series on rabbit [2] (group: maternal, systemic / in life observation / body weight / body weight gain), 50 mg/kg/day; with rat [3] (setting [25]) it was 100 ppm; with rat [4] (setting [26]), 25 ppm. For the same compound, the LEL in the series on rat [4] (group: maternal, systemic / in life observation / food consumption / food consumption + systemic / organ weight / liver / absolute + systemic / organ weight…) stood at 100 ppm.
In the case of `COC(=O)c1ccc(C(=O)OC)cc1` [Dimethyl terephthalate], the LEL in the series on rat [5] amounted to 4 mg/kg/day; with rat [6] it was 500 mg/kg/day; in the series with mouse [7], 375 mg/kg/day; in the series on rat [8] it was 500 mg/kg/day; in the series with mouse [9], 375 mg/kg/day. In addition, the LOAEL is > 4 mg/kg/day with rat [5]; > 500 mg/kg/day in the series with rat [6]; > 3000 mg/kg/day in the series with mouse [7]; 500 mg/kg/day in the series with rat [8]; > 750 mg/kg/day in the series with mouse [9]. In addition, the NEL in the series on rat [5] is 0.7 mg/kg/day; with rat [6], 250 mg/kg/day; in the series on mouse [7], 262 mg/kg/day; in the series on rat [8] it was 250 mg/kg/day; in the series on mouse [9], < 375 mg/kg/day. Moreover, the NOAEL in the series on rat [5] was ≥ 4 mg/kg/day; in the series with rat [6] it was ≥ 500 mg/kg/day; in the series on mouse [7] it was ≥ 3000 mg/kg/day; with rat [8] it was 250 mg/kg/day; in the series on mouse [9] it was ≥ 750 mg/kg/day.
As to `CCCCCCCCn1sccc1=O` [Octhilinone], the LOAEL in the series on rat [10] (setting [28]) was 111 mg/kg/day; with rat [10] (group: parental, systemic / pathology microscopic / stomach / hyperkeratosis + systemic / pathology microscopic / stomach / hyperplasia) it was 96 mg/kg/day; in the series with rabbit [11] (setting [20]) it was 80 mg/kg/day; in the series on rabbit [11] (setting [30]), 80 mg/kg/day; in the series with rat [12] (setting [31]), 0.73 ppm. Further, the NEL in the series with rat [10] (setting [28]) is 14 mg/kg/day; with rat [10] (setting [29]), 43 mg/kg/day; in the series with rabbit [11] (setting [20]) it was 20 mg/kg/day; in the series on rabbit [11] (setting [30]), 20 mg/kg/day; in the series with rat [12] (systemic / in life observation / clinical signs / respiration (rales) + systemic / pathology microscopic / nose / [other]), 0.0733 ppm. For the same compound, the NOAEL in the series with rat [10] (setting [28]) came out at 45 mg/kg/day; in the series with rat [10] (setting [29]), 43 mg/kg/day; in the series on rabbit [11] (setting [20]) it was 20 mg/kg/day; in the series on rabbit [11] (setting [30]), 20 mg/kg/day; with rat [12] (setting [31]), 0.0733 ppm. For the same compound, the LEL came to 45 mg/kg/day in the series with rat [10] (group: offspring, systemic / organ weight / spleen / relative to body weight); 96 mg/kg/day in the series on rat [10] (setting [29]); 80 mg/kg/day in the series with rabbit [11] (setting [20]); 80 mg/kg/day in the series with rabbit [11] (setting [30]); 0.73 ppm with rat [12] (setting [31]).
Take `CCCCOCCOCCOCc1cc2c(cc1CCC)OCO2` [Piperonyl butoxide]: the lowest-observed-adverse-effect level (LOAEL) came out at 100 mg/kg/day in the series with rat [13] (setting [32]); 500 mg/kg/day with rat [14] (setting [33]); 155 mg/kg/day with mouse [15] (setting [33]); 100 mg/kg/day with mouse [16] (systemic / organ weight / liver / relative to body weight + systemic / pathology microscopic / liver / hypertrophy); 15.5 mg/kg/day in the series on dog. For the same compound, the NEL was 15 mg/kg/day in the series with rat [13] (setting [32]); < 250 mg/kg/day in the series with rat [14] (setting [33]); < 155 mg/kg/day with mouse [15] (setting [34]); < 30 mg/kg/day in the series with mouse [16] (setting [35]); 2.9 mg/kg/day in the series with dog. The NOAEL with rat [13] (setting [32]) was 30 mg/kg/day; with rat [14] (systemic / in life observation / body weight / body weight + systemic / pathology gross / full gross necropsy / lymphoma nos), 250 mg/kg/day; with mouse [15] (setting [33]) it was < 155 mg/kg/day; in the series on mouse [16] (systemic / organ weight / liver / relative to body weight + systemic / pathology microscopic / liver / adenoma) it was 30 mg/kg/day; in the series on dog, 2.9 mg/kg/day. For the same compound, the LEL with rat [13] (systemic / organ weight / liver / absolute + systemic / organ weight / liver / relative to brain weight + systemic / pathology gross / …) amounted to 30 mg/kg/day; in the series on rat [14] (setting [33]), 250 mg/kg/day; in the series on mouse [15] (setting [34]), 155 mg/kg/day; in the series on mouse [16] (setting [35]) it was 30 mg/kg/day; with dog it was 15.5 mg/kg/day.
Take `CCCCCCCCOC(=O)c1ccccc1C(=O)OCCCCCCCC` [Dioctyl phthalate]: in the series with rat [17], the LEL came to 350 mg/kg/day, the LOAEL is > 350 mg/kg/day, the NEL is 36.8 mg/kg/day and the NOAEL is ≥ 350 mg/kg/day. In addition, the NEL in the series with mouse [18] (systemic / organ weight / kidney / relative to body weight + systemic / organ weight / liver / relative to body weight) stood at 3600 mg/kg/day. In the series with mouse [18] (setting [36]), the LEL was 7500 mg/kg/day, the LOAEL was > 7500 mg/kg/day and the NOAEL is ≥ 7500 mg/kg/day.
